Data set [1] can be described thus: Drug uptake in brain of mouse xenografted with human NCI-H2122 cells at 50 mg/kg, ip after 3 hrs by LC-MS/MS analysis. Type of data set: ADME, organism-based. Particulars: read-out: Drug uptake. A general note: In xenograft studies the graft and the host belong to different species.
The nature of data set [2]: Drug uptake in heart of mouse xenografted with human NCI-H2122 cells at 50 mg/kg, ip after 3 hrs by LC-MS/MS analysis. Type of data set: ADME, organism-based. Particulars: read-out: Drug uptake.
The nature of data set [3]: Drug uptake in kidney of mouse xenografted with human NCI-H2122 cells at 50 mg/kg, ip after 3 hrs by LC-MS/MS analysis. The format is ADME, organism-based. Particulars: read-out: Drug uptake.
Data set [4] is described as follows: Drug uptake in liver of mouse xenografted with human NCI-H2122 cells at 50 mg/kg, ip after 3 hrs by LC-MS/MS analysis. The conditions noted are these: read-out: Drug uptake. Type of data set: ADME, organism-based.
Data set [5] is described as follows: Drug uptake in lungs of mouse xenografted with human NCI-H2122 cells at 50 mg/kg, ip after 3 hrs by LC-MS/MS analysis. The format is ADME, organism-based. The conditions noted are these: lung, read-out: Drug uptake.
A short description of data set [6]: Drug uptake in tumor of mouse xenografted with human NCI-H2122 cells at 50 mg/kg, ip after 3 hrs by LC-MS/MS analysis. The format is ADME, organism-based, Neoplasm. Particulars: read-out: Drug uptake.
The nature of data set [7]: Plasma concentration in mouse xenografted with human NCI-H2122 cells at 50 mg/kg, ip after 3 hrs by LC-MS/MS analysis. The format is ADME, organism-based.
Data set [8] can be described thus: Drug metabolism in CD1 mouse liver microsomes assessed as CYP450-mediated M6 metabolite formation at 16.7 uM up to 60 mins in presence of NADPH by LC-MS/MS analysis. Particulars: 1 h. Type of data set: ADME. In general terms: Liver microsomes are a subcellular fraction often used to study metabolism.
Data set [9] is described as follows: Drug metabolism in CD1 mouse liver microsomes assessed as CYP450-mediated M7 metabolite formation at 16.7 uM up to 60 mins in presence of NADPH by LC-MS/MS analysis. Type of data set: ADME. Particulars: 1 h.
A short description of data set [10]: Drug metabolism in mouse xenografted with human NCI-H2122 cells assessed as M6 metabolite formation in plasma at 50 mg/kg, ip after 3 hrs by LC-MS/MS analysis. Type of data set: ADME, organism-based. The conditions noted are these: in vivo.
Data set [11] can be described thus: Drug metabolism in mouse xenografted with human NCI-H2122 cells assessed as M6 metabolite formation in tumor at 50 mg/kg, ip after 3 hrs by LC-MS/MS analysis. The format is ADME, organism-based, Neoplasm. Particulars: in vivo.
A short description of data set [12]: Drug metabolism in mouse xenografted with human NCI-H2122 cells assessed as M6 metabolite formation in kidney at 50 mg/kg, ip after 3 hrs by LC-MS/MS analysis. The format is ADME, organism-based. Particulars: in vivo.
Data set [13] is described as follows: Drug metabolism in mouse xenografted with human NCI-H2122 cells assessed as M6 metabolite formation in liver at 50 mg/kg, ip after 3 hrs by LC-MS/MS analysis. Type of data set: ADME, organism-based. The conditions noted are these: in vivo.
Data set [14] in a line: Drug metabolism in mouse xenografted with human NCI-H2122 cells assessed as M6 metabolite formation in lungs at 50 mg/kg, ip after 3 hrs by LC-MS/MS analysis. Type of data set: ADME, organism-based, Lung. Particulars: in vivo.
Data set [15] in a line: Drug metabolism in mouse xenografted with human NCI-H2122 cells assessed as M6 metabolite formation in heart at 50 mg/kg, ip after 3 hrs by LC-MS/MS analysis. Particulars: in vivo. Type of data set: ADME, organism-based.
Data set [16] in a line: Drug metabolism in mouse xenografted with human NCI-H2122 cells assessed as M7 metabolite formation in plasma at 50 mg/kg, ip after 3 hrs by LC-MS/MS analysis. The format is ADME, organism-based. The conditions noted are these: in vivo.
Data set [17] is described as follows: Drug metabolism in mouse xenografted with human NCI-H2122 cells assessed as M7 metabolite formation in brain at 50 mg/kg, ip after 3 hrs by LC-MS/MS analysis. The conditions noted are these: in vivo. The format is ADME, organism-based.
Data set [18] is described as follows: Drug metabolism in mouse xenografted with human NCI-H2122 cells assessed as M7 metabolite formation in tumor at 50 mg/kg, ip after 3 hrs by LC-MS/MS analysis. Type of data set: ADME, organism-based, Neoplasm. The conditions noted are these: in vivo.
Data set [19] is described as follows: Drug metabolism in mouse xenografted with human NCI-H2122 cells assessed as M7 metabolite formation in kidney at 50 mg/kg, ip after 3 hrs by LC-MS/MS analysis. The format is ADME, organism-based. The conditions noted are these: in vivo.
Data set [20] in a line: Drug metabolism in mouse xenografted with human NCI-H2122 cells assessed as M7 metabolite formation in liver at 50 mg/kg, ip after 3 hrs by LC-MS/MS analysis. The format is ADME, organism-based. The conditions noted are these: in vivo.
The nature of data set [21]: Drug metabolism in mouse xenografted with human NCI-H2122 cells assessed as M7 metabolite formation in lungs at 50 mg/kg, ip after 3 hrs by LC-MS/MS analysis. Type of data set: ADME, organism-based, Lung. The conditions noted are these: in vivo.
Data set [22] is described as follows: Drug metabolism in mouse xenografted with human NCI-H2122 cells assessed as M7 metabolite formation in heart at 50 mg/kg, ip after 3 hrs by LC-MS/MS analysis. The format is ADME, organism-based. Particulars: in vivo.

The structures appear in SMILES notation.

Regarding `CCCCC(=O)C1c2ccccc2NC2=C(C(=O)CCC2)C1c1ccccc1Cl` (configuration not stated), the concentration at 3 h amounted to 210 ng/g in data set [1]; 3540 ng/g in data set [2]; 5730 ng/g in data set [3]; 11500 ng/g in data set [4]; 3180 ng/g in data set [5]; 4170 ng/g in data set [6]. The concentration at 3 h in data set [7] was 3950 ng/mL. In addition, the Drug metabolism entry in [8] was “Metabolite_Detected”; in data set [9], “Metabolite_Detected”; in data set [10] it was 147.5 ng/mL; in data set [11], 145.5 ng/g; in data set [12], 350.6 ng/g; in data set [13] it was 2531.5 ng/g. The Drug metabolism in [14] worked out at 47.7 ng/g; in data set [15] it was 52.8 ng/g; in data set [16], 656.2 ng/mL; in data set [17], 17 ng/g; in [18] it was 413 ng/g; in [19], 839.9 ng/g. The Drug metabolism is recorded as 2822.9 ng/g in data set [20], 487.4 ng/g in [21] and 472.6 ng/g in [22].

(Values after ChEMBL document CHEMBL3870328, “Synthesis of novel Ral inhibitors: An in vitro and in vivo study” (Bioorg Med Chem Lett, 2016).)
